From article PMC8480782, “Efficient Dimerization Disruption of Leishmania infantum Trypanothione Reductase by Triazole-phenyl-thiazoles” (Journal of Medicinal Chemistry, 2021) come the findings set out here.

Assay [1] has as its system L. infantum axenic amastigotes. Description: Leishmanicidal activity on axenic amastigotes (PI exclusion, flow cytometry). The class given is cell-based, Leishmania infantum. Particulars: for SIa (ratio of EC50 against human cells to EC50 against amastigotes): HepG2 / axenic amastigotes; for EC50: Leishmania infantum, read-out: EC50 amastigotes. Summed up:
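Leishmania infantum axenic amastigotes (MCAN/ES/89/IPZ229/1/89) were cultured at 37 °C in M199 medium, pH 5.4, with 10% heat-inactivated FCS, organic acids, MES, hemin and gentamicine. After compound exposure, parasites were gated by FSC/SSC and live versus dead cells were distinguished by propidium iodide exclusion using flow cytometry. EC50 values came from nonlinear regression in GraFit 6, with triplicates in at least three independent experiments.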

The target of another assay is T1, LiTryR (Leishmania infantum, UniProt A4HSF7).
T1 construct: HIS (N); made in house; host or cells: E. coli BL21 (DE3) Rossetta
As to the kind of experiment: Time-dependent inhibition kinetics of LiTryR (modified DTNB-coupled assay). The class given is biochemical. The following applies: for α* (overall two-step process): fit to eq 4; for mechanism of LiTryR inhibition: reaction progress curves / kinetic analysis; for α (initial EI complex): fit to eq 3. Here is the method:
The inhibitory constants Ki and Ki* for 19a were calculated following a slightly modified version of the standard DTNB-coupled assay.[52] TS2 was serially diluted (sixfold dilution from 1666 to 52 μM) in a buffer containing 40 mM HEPES (pH 7.5) and 1 mM EDTA. The different TS2 solutions were dispensed (15 μL) in a 96-well microplate. 19a was serially diluted in DMSO (sixfold dilution from 1875 to 445 μM). […] These mixtures (180 μL) were subsequently added to the appropriate wells previously filled with different TS2 solutions. The assay was initiated by addition of 55 μL of buffer containing 40 mM HEPES (pH 7.5), 1 mM EDTA, 272.73 μM NADP^+, 0.01% glycerol, and 3.5 nM recombinant LiTryR using an automated dispensing system (PerkinElmer, Waltham, MA). The order of addition was essential to avoid enzyme preincubation with the inhibitor or the substrates. […] TryR oxidoreductase activity was monitored at 26 °C by an increase in absorbance at 412 nm in an EnSpire Multimode Plate Reader (PerkinElmer, Waltham, MA). Coupling an automated dispenser module to the spectrophotometer enabled real-time detection of the enzymatic reaction, which was crucial for high-quality nonlinear fits of the experimental data and, especially, to estimate the initial velocity of the progress curves in the presence of 19a. To guarantee linearity of the enzyme reaction in the absence of an inhibitor, the analysis was performed with data obtained during the first 20 000 s to avoid TS2 depletion. […] All of the assays were conducted in three independent experiments.
kobs values were estimated for every 19a concentration at all TS2 concentrations by fitting the values of the TNB concentration produced during each enzymatic reaction to eq 1.[42b],[53] [drawing 2] 1 where vi and vs are the initial and the steady-state velocities, respectively, kobs is the apparent first-order rate constant for the conversion of vi into the steady-state velocity (vs), and d is a parameter that indicates the displacement of the curve on the vertical ordinate and takes into account any nonzero value of the measured signal at time zero caused by some of the reagents. The apparent inhibition constants (Ki^app and Ki*^app) for each TS2 concentration were determined by fitting the kobs values obtained at different 19a concentrations to eq 2 [drawing 3] 2 where Ki^app is the apparent value of the Ki for the initial encounter complex (EI) and Ki*^app is the apparent value of the overall inhibition constant Ki* to form a higher-affinity complex (E*I). k6 is the first-order rate constant that defines the reverse isomerization step that returns E*I to EI.[42a],[53]
The Ki value for the formation of the EI complex was determined by fitting the Ki^app values obtained at different TS2 concentrations to eq 3. In addition, this graph was used to assess the inhibition modality of 19a during the first equilibrium of its two-step binding mechanism. […] In addition, this graph was used to assess the overall inhibition modality of 19a during its two-step binding mechanism. As explained above, the value obtained for α defines the mode of inhibition.[42a] [drawing 5] 4
Figure S1. […]
Lineweaver–Burk plots of reciprocal initial velocities ( vi) versus reciprocals of four TS2

Setting [2] is: axenic amastigotes, 24 h at 37 °C.
The mark [3] stands for this setting: fit of Ki*^app to eq 4, read-out: Ki* (overall two-step process).
[4] abbreviates: two-step mechanism, fit of Ki^app to eq 3, read-out: Ki (initial EI complex).

SMILES strings stand for the structures. Where “and” joins values, the source holds several entries; their conditions need not be identical. Equal values may be shown once. Entries after “also recorded” stand apart in the source; their conditions may differ. Read-outs that look alike come from different tables or passages of the source.

T1 sequence (A4HSF7 1-491): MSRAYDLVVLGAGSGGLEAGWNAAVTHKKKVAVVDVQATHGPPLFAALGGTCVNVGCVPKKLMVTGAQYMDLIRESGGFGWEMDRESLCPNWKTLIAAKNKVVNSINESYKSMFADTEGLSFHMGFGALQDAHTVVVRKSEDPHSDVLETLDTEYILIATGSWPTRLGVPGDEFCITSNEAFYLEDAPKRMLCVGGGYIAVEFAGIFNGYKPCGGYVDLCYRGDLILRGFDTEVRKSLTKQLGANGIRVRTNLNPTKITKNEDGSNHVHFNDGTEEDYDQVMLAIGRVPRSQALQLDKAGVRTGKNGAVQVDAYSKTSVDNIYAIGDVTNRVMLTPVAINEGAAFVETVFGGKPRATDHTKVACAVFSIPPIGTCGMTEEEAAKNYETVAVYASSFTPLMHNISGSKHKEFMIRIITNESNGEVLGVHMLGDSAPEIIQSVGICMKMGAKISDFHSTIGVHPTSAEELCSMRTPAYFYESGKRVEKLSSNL

Broadly, the EC50 is the midpoint of the concentration-response curve. Turning to `NCCCCc1cn(-c2ccc(-c3nc(CCc4ccc5ccccc5c4)cs3)c(OCCN3CCNC3=O)c2)nn1.O=C(O)C(F)(F)F` [12b, 1-(2-(5-(4-(4-Ammoniumbutyl)-1H-1,2,3-triazol-1-yl)-2-(4-(2-(naphthalen-2-yl)ethyl)thiazol-2-yl)phenoxy)ethyl)imidazolidin-2-one 2,2,2-Trifluoroacetate], in assay [1], the “SIa (ratio of EC50 against human cells to EC50 against amastigotes)” value came out at 2.2. Also, in assay [1] (setting [2]), the EC50 worked out at 15.3 ± 1.7 µM. The Ki worked out at 2.6 ± 0.6 µM at LiTryR (setting [3]) and 10 ± 2.7 µM on LiTryR (setting [4]). Moreover, the “α* (overall two-step process)” value on LiTryR was found to be 1.3 ± 0.6. Besides, at LiTryR, the “mechanism of LiTryR inhibition” value was “slow-binding inhibitors; also recorded: two-step process of enzyme isomerization”. Also, the “α (initial EI complex)” value on LiTryR (two-step mechanism) is 2.0 ± 1.3.
`NCCCCc1cn(-c2ccc(-c3nc(CCc4ccc(-c5ccccc5)cc4)cs3)c(OCCN3CCNC3=O)c2)nn1.O=C(O)C(F)(F)F` [12c, 1-(2-(2-(4-(2-([1,1′-Biphenyl]-4-yl)ethyl)thiazol-2-yl)-5-(4-(4-ammoniumbutyl)-1H-1,2,3-triazol-1-yl)phenoxy)ethyl)imidazolidin-2-one 2,2,2-Trifluoroacetate]: the “SIa (ratio of EC50 against human cells to EC50 against amastigotes)” value in assay [1] is on record as 3.7. Besides, the EC50 in assay [1] (setting [2]) amounted to 11.6 ± 0.8 µM. Moreover, the “mechanism of LiTryR inhibition” value on LiTryR is listed as “slow-binding inhibitors”.
In the case of `NCCCc1cn(-c2ccc(-c3nc(CCc4ccc(-c5ccccc5)cc4)cs3)c(OCCN3CCNC3=O)c2)nn1.O=C(O)C(F)(F)F` [12i], the “SIa (ratio of EC50 against human cells to EC50 against amastigotes)” value in assay [1] is 11.6. For the same compound, the EC50 in assay [1] (setting [2]) came to 5.2 ± 0.3 µM.
As for `NCCCCc1cn(-c2ccc(-c3nc(-c4ccccc4)cs3)c(OCCN3CCNC3=O)c2)nn1.O=C(O)C(F)(F)F` [12n], in assay [1] (setting [2]), the EC50 is 11.5 ± 0.3 µM.
`NCCCCc1cn(-c2ccc(-c3nc(CCc4ccc5c(c4)CCCN5)cs3)c(OCCN3CCNC3=O)c2)nn1.O=C(O)C(F)(F)F.O=C(O)C(F)(F)F` [12q]: the “SIa (ratio of EC50 against human cells to EC50 against amastigotes)” value in assay [1] is “ND/1.6”. Further, the EC50 in assay [1] (setting [2]) turned out to be 27 ± 2.8 µM. In addition, on LiTryR, the “mechanism of LiTryR inhibition” value was “single-step binding mechanism”. Moreover, at LiTryR (single-step mechanism (Scheme S4)), the “α, reversible single-step mechanism of time-dependent inhibition” value stood at 0.3 ± 0.2. The Ki at LiTryR (single-step mechanism (Scheme S4), read-out: Ki, reversible single-step mechanism of time-dependent inhibition) turned out to be 13.6 ± 5.1 µM.
Take `NCCCCc1cn(-c2ccc(-c3nc(CCc4ccc5c(c4)CCO5)cs3)c(OCCN3CCNC3=O)c2)nn1.O=C(O)C(F)(F)F` [12r]: the “SIa (ratio of EC50 against human cells to EC50 against amastigotes)” value in assay [1] is reported as 1.3. Also, the EC50 in assay [1] (setting [2]) is 22.3 ± 0.6 µM. The “mechanism of LiTryR inhibition” value on LiTryR is “slow-binding inhibitors”.
For the compound `NCCCCc1cn(-c2ccc(-c3nc(CCc4ccc5oc6ccccc6c5c4)cs3)c(OCCN3CCNC3=O)c2)nn1.O=C(O)C(F)(F)F` [12s], the “SIa (ratio of EC50 against human cells to EC50 against amastigotes)” value in assay [1] is “ND/>1.1”. Moreover, the EC50 in assay [1] (24 h) is 68.8 ± 3.2 µM. On LiTryR, the “mechanism of LiTryR inhibition” value is “slow-binding inhibitors”.
For the compound `NCCCCc1cn(-c2ccc(-c3nc(-c4ccccc4)c(-c4ccccc4)s3)c(OCCN3CCNC3=O)c2)nn1.O=C(O)C(F)(F)F` [19a, 1-(2-(5-(4-(4-Ammoniobutyl)-1H-1,2,3-triazol-1-yl)-2-(4,5-diphenylthiazol-2-yl)phenoxy)ethyl)imidazolidin-2-one 2,2,2-Trifluoroacetate], in assay [1], the “SIa (ratio of EC50 against human cells to EC50 against amastigotes)” value worked out at 1.7. Also, the EC50 in assay [1] (setting [2]) stood at 15.6 ± 3 µM. In addition, at LiTryR (DTNB-coupled assay, initial velocities, alpha value of 1), the “β, noncompetitive hyperbolic inhibition mechanism” value is on record as 0.5 ± 0.1. For the same compound, the Ki on LiTryR (DTNB-coupled assay, initial velocities, alpha value of 1, read-out: Ki, noncompetitive hyperbolic inhibition mechanism) amounted to 12.7 ± 3.5 µM; on LiTryR ([TS2] 3.1 μM, read-out: Ki*^app), 0.6 ± 0.1 µM; at LiTryR ([TS2] 3.1 μM, read-out: Ki^app), 8.9 ± 3.1 µM; at LiTryR ([TS2] 6.2 μM, read-out: Ki*^app) it was 0.5 ± 0.1 µM; on LiTryR ([TS2] 6.2 μM, read-out: Ki^app), 7.2 ± 1.7 µM; at LiTryR ([TS2] 12.5 μM, read-out: Ki*^app) it was 0.5 ± 0.2 µM. The Ki at LiTryR ([TS2] 12.5 μM, read-out: Ki^app) was 5.2 ± 2.6 µM; at LiTryR ([TS2] 25 μM, read-out: Ki*^app), 0.8 ± 0.2 µM; on LiTryR ([TS2] 25 μM, read-out: Ki^app), 8.3 ± 3 µM; at LiTryR ([TS2] 50 μM, read-out: Ki*^app), 1.4 ± 0.3 µM; at LiTryR ([TS2] 50 μM, read-out: Ki^app) it was 9.3 ± 3.2 µM; on LiTryR ([TS2] 100 μM, read-out: Ki*^app) it was 1.3 ± 0.6 µM. In addition, the Ki came out at 5 ± 2.7 µM on LiTryR ([TS2] 100 μM, read-out: Ki^app); 0.5 ± 0.1 µM at LiTryR (setting [3]); 7.8 ± 1.7 µM on LiTryR (setting [4]). Further, the “α* (overall two-step process)” value at LiTryR came out at 5.5 ± 2.9. Also, the “k6, value selected as conservative upper value” on LiTryR (fixed for fitting to eq 2) was ≤ 3 × 10^–5 s^–1. Also, the “mechanism of LiTryR inhibition” value on LiTryR was “slow-binding inhibitors; also recorded: nonlinear noncompetitive hyperbolic inhibition mechanism”. On LiTryR (two-step mechanism), the “α (initial EI complex)” value is listed as 0.8 ± 0.4.
For the compound `NCCCCc1cn(-c2ccc(-c3nc(-c4ccc(Oc5ccccc5)cc4)c(-c4ccccc4)s3)c(OCCN3CCNC3=O)c2)nn1.O=C(O)C(F)(F)F` [19c, 1-(2-(5-(4-(4-Ammoniobutyl)-1H-1,2,3-triazol-1-yl)-2-(4-([4-phenyloxyphenyl]-1-yl)-5-phenylthiazol-2-yl)phenoxy)ethyl)imidazolidin-2-one 2,2,2-Trifluoroacetate], the “SIa (ratio of EC50 against human cells to EC50 against amastigotes)” value in assay [1] is “ND/≥3.3”. Moreover, the EC50 in assay [1] (setting [2]) was 22.6 ± 5.7 µM.
For the compound `NCCNCc1nccn1-c1ccc(-c2nc(CCc3ccc4ccccc4c3)cs2)c(OCCN2CCNC2=O)c1` [compound 2, reference compound], the “SIa (ratio of EC50 against human cells to EC50 against amastigotes)” value in assay [1] is on record as 2.1/2.1. For the same compound, the EC50 in assay [1] (setting [2]) stood at 12.8 ± 1.3 µM.
For the compound `NCCNCc1nccn1-c1ccc(-c2nc(CCc3ccc(-c4ccccc4)cc3)cs2)c(OCCN2CCNC2=O)c1` [compound 3, reference compound], the “SIa (ratio of EC50 against human cells to EC50 against amastigotes)” value in assay [1] was 2.7 and 2.7/2.7. In assay [1] (setting [2]), the concentration for a half-maximal effect (EC50) is 5.3 ± 0.2 µM.
Take `NCCCCc1cn(-c2ccc(-c3nc(-c4cccc(-c5csc(-c6ccc(-n7cc(CCCCN)nn7)cc6OCCN6CCNC6=O)n5)c4)cs3)c(OCCN3CCNC3=O)c2)nn1.O=C(O)C(F)(F)F.O=C(O)C(F)(F)F` [compound 22, 1,1′-((((1,3-Phenylenebis(thiazole-4,2-diyl))bis(5-(4-(4-ammoniobutyl)-1H-1,2,3-triazol-1-yl)-2,1-phenylene))bis(oxy))bis(ethane-2,1-diyl))bis(imidazolidin-2-one)bis(2,2,2-trifluoroacetate)]: the “SIa (ratio of EC50 against human cells to EC50 against amastigotes)” value in assay [1] turned out to be 6.2. In assay [1] (setting [2]), the EC50 is 4.9 ± 0.2 µM.
